Experiments:
IOP = experiment: Dexamethasone acetate induced IOP elevation in rabbits; assay type: in vivo, rabbit; settings: for IOP: rabbits with weekly subTenon's dexamethasone acetate 1 mg/kg, versus vehicle
Experimental: Three groups of rabbits received weekly subTenon's injections of dexamethasone acetate (1 mg/kg) for 4 weeks. After two weeks, the IOPs of all three groups measured approximately 5 mm Hg. The rabbits were then treated with vehicle, 0.1% anecortave acetate, a 1% anecortave acetate by topical ocular dosing three times a day for the remaining 2 weeks. The IOP continued to increase in the vehicle treated group.

[1] = system: retinal neovascularization; experiment: Rat pup model of retinopathy of prematurity; assay type: in vivo
Experimental: Anecortave acetate was tested for its angiostatic efficacy in a rat pup model of retinopathy of prematurity (Penn, at al., Investigative Ophthalmology & Visual Science, “The Effect of an Angiostatic Steroid on Neovascularization in a Rat Model of Retinopathy of Prematurity,” Vol. 42(1):283-290, January 2001). Newborn rat pups were placed in an atmosphere of varying oxygen content. The rats received a single intravitreal injection of vehicle or anecortave acetate (500 μg) upon return to room air (day 14) or 2 days later (day 16). There was significant retinal neovascularization in the rats that receive vehicle injections.

Row | Structure (SMILES) | IOP (IOP; 0.1% anecortave acetate topical ocular three times a day for 2 weeks) | IOP (IOP; 1% anecortave acetate topical ocular three times a day for 2 weeks) | inhibition of retinal neovascularization ([1]; single intravitreal injection 500 μg 2 days after return to room air (day 16)) [%] | inhibition of retinal neovascularization ([1]; single intravitreal injection 500 μg upon return to room air (day 14)) [%] | IOP after two weeks of dexamethasone acetate (IOP; rabbits, weekly subTenon's injections 1 mg/kg, all three groups, before anecortave acetate or vehicle dosing)
1 | CC(=O)OCC(=O)[C@@]1(O)CC[C@H]2[C@@H]3CCC4=CC(=O)CC[C@]4(C)C3=CC[C@@]21C [anecortave acetate, 4,9(11)-pregnadien-17α,21-diol-3,20dione-21-acetate] | significantly lowered | significantly lowered | 50 | 66 | 
2 | CC(=O)OCC(=O)[C@@]1(O)[C@H](C)C[C@H]2[C@@H]3CCC4=CC(=O)C=C[C@]4(C)[C@@]3(F)[C@@H](O)C[C@@]21C [dexamethasone acetate] |  |  |  |  | approximately 5 mm Hg

From patent US20040171598A1, “Use of steroids to treat persons suffering from ocular disorders” (priority 2003, published 2004)
